Test results taken from patent US8552002B2 (Novartis AG, priority 2004, dated 2013).
Counter-ions that a name gives are not always drawn. Like-named read-outs stand apart in the source and are kept apart here.

Experiments:
Type in all cases: biochemical
[1] = target: T1, KDR (Homo sapiens, UniProt P35968); assay: Inhibitory activity against KDR (VEGF-R2), in vitro data of Examples 170 and 207; details: 10 μM, read-out: KDR inhibition at 10 μM
T1 construct: expressed in transfected cells; host or cells: CHO cells
T1 sequence (P35968 20-1356): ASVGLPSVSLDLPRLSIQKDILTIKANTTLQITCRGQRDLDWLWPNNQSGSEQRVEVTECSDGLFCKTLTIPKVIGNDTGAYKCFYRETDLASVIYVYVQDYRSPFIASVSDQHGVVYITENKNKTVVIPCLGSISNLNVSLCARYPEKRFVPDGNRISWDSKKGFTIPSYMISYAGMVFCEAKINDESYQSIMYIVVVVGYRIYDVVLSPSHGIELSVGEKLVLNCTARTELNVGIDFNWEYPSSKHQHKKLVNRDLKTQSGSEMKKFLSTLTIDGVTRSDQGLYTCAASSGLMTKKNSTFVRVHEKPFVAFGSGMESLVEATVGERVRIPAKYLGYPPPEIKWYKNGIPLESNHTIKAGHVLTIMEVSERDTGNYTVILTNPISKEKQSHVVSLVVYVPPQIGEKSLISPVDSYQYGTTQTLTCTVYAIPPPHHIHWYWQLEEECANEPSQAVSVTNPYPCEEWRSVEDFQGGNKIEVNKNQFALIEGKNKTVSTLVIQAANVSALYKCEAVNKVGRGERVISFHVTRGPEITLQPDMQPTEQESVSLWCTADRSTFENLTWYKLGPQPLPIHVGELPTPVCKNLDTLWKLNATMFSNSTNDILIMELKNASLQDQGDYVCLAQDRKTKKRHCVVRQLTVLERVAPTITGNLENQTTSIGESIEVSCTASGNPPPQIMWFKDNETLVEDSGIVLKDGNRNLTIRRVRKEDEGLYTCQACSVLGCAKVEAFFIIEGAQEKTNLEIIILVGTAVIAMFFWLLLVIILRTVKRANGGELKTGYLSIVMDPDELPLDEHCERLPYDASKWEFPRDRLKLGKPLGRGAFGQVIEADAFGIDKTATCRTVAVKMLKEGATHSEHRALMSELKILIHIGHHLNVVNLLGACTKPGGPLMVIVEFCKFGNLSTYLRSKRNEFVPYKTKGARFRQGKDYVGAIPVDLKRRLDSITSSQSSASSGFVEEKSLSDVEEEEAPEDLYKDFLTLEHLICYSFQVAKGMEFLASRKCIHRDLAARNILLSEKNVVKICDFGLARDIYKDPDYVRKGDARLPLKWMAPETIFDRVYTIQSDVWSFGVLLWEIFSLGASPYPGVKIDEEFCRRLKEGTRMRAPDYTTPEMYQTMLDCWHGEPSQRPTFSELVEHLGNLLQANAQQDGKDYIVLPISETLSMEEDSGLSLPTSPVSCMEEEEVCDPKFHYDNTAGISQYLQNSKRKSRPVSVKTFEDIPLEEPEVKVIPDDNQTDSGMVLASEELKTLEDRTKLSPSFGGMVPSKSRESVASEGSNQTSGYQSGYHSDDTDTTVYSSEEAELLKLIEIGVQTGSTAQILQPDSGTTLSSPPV
How it was run: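 KDR tyrosine phosphorylation detected by luminescence after overnight 4° C capture of 20 μg lysate protein with PY20:AP antibody. Lysates came from cells given compound for 2 h at 37° C, then final 20 ng/ml VEGF for 5 min; compound-free medium as control.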

[2] = target: T2, FGFR3 (K650E) (Homo sapiens, UniProt P22607, K650E); assay: Recombinant GST-FGFR-3-K650E tyrosine kinase assay (33P into poly(Glu,Tyr)); details: 10 μM
T2 construct: amino acids 411-806 of the cytoplasmic domain of human FGFR-3, N-terminally fused to GST; made in house; host or cells: Sf9 insect cells (baculovirus)
T2 sequence (P22607 411-806 K650E): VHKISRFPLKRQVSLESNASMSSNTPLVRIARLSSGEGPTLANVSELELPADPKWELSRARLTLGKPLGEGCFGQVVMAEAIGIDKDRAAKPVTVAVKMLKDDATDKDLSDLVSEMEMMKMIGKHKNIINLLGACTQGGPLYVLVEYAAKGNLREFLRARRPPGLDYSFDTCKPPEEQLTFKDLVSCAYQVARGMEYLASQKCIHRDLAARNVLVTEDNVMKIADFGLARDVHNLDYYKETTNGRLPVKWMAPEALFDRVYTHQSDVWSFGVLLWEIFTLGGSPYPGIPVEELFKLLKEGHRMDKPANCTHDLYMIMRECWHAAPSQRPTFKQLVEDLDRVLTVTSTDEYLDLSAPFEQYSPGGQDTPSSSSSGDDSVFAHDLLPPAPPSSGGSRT

[3] = target: c-Abl (Homo sapiens, UniProt P00519); assay: Inhibitory activity against c-Abl (Example 207); details: Examples 171 to 206
c-Abl, sequence (P00519 whole entry): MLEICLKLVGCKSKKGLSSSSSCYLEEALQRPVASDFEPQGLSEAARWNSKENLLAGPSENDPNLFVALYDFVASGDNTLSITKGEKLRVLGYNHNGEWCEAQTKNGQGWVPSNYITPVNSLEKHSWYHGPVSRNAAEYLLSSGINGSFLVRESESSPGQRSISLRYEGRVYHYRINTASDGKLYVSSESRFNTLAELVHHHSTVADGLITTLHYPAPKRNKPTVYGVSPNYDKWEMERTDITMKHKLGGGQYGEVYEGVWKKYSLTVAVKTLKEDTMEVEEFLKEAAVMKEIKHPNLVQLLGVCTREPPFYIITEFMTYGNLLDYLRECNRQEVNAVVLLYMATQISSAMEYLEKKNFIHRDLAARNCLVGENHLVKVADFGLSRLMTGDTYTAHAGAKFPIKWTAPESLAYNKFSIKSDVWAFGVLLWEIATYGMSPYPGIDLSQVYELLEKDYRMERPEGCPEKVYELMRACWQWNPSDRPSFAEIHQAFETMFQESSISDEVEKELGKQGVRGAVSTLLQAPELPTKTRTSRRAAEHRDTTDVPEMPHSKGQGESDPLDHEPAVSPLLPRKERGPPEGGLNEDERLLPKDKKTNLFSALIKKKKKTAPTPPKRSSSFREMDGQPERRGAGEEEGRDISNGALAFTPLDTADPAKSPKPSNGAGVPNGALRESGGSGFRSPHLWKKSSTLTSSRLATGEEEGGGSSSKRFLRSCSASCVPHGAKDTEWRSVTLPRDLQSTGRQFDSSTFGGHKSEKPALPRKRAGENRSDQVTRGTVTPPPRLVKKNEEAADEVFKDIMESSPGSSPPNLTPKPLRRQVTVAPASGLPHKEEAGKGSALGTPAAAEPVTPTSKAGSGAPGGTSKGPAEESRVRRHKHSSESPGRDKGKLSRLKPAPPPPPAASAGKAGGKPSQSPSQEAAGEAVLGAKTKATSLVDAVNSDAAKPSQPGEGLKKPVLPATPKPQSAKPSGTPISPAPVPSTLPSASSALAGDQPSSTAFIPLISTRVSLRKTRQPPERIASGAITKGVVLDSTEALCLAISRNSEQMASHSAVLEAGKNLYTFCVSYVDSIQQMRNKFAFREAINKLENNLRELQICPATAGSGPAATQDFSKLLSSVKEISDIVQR

[4] = target: T3, Tek (Homo sapiens, UniProt Q02763); assay: Recombinant GST-Tek (Tie-2) tyrosine kinase assay (33P into poly(Glu,Tyr)); details: Examples 1 to 169
T3 construct: amino acids 773-1124 of the cytoplasmic kinase domain of human Tek, N-terminally fused to GST; made in house; host or cells: Sf9 insect cells (baculovirus)
T3 sequence (Q02763 773-1124): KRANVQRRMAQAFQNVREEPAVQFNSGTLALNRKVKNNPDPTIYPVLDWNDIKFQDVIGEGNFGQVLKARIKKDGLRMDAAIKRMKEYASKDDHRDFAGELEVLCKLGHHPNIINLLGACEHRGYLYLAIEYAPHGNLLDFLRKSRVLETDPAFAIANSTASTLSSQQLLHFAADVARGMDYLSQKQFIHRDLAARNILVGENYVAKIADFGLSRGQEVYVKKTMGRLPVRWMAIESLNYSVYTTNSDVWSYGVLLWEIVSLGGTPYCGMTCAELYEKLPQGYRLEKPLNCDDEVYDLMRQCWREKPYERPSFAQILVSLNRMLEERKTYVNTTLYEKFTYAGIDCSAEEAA
How it was run: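 Read-out is filter-bound 33P in poly(Glu,Tyr) 4:1 (10 μg/mL) after 30 min at ambient temperature with 4.0 μM ATP. Enzyme: 150 ng human GST-Tek (aa 773-1124) from insect cells, in Tris pH 7.5 with Mn2+/Mg2+ and vanadate. IC50 fitted linearly over four concentrations, usually 0.01-10 μM.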

[5] = Examples 171 to 206, read-out: FGFR3 inhibition at 10 μM
[6] = Examples 1 to 169, read-out: FGFR3 (K650E) inhibition at 10 μM

| inhibition at 10 µM ([1]; Examples 171 to 206) [%] | inhibition at 10 µM [2, 5] [%] | inhibition at 10 µM [3] [%] | inhibition at 10 µM ([1]; Examples 1 to 169) [%] | inhibition at 10 µM [2, 6] [%] | inhibition at 10 µM [4] [%] | SMILES |
| --- | --- | --- | --- | --- | --- | --- |
| 87 to 100 | 56 to 98 | 79 to 100 |  |  |  | Cc1ccc(NC(=O)c2cccc(C(F)(F)F)c2)cc1NC(=O)Nc1cc(Nc2ccccc2)ncn1 [Example 173, N-{4-Methyl-3-[3-(6-phenylamino-pyrimidin-4-yl)-ureido]-phenyl}-3-trifluoromethyl-benzamide] |
| 87 to 100 | 56 to 98 | 79 to 100 |  |  |  | CCN(C(=O)Nc1cc(NC(=O)c2cccc(C(F)(F)F)c2)ccc1C)c1cc(Nc2ccc(N3CCN(C)CC3)cc2)ncn1 [Example 192, N-[3-(3-Ethyl-3-{6-[4-(4-methyl-piperazin-1-yl)-phenylamino]-pyrimidin-4-yl}-ureido)-4-methyl-Phenyl]-3-trifluoromethyl-benzamide] |
| 87 to 100 | 56 to 98 | 79 to 100 |  |  |  | Cc1ccc(NC(=O)c2cccc(C(F)(F)F)c2)cc1NC(=O)N(C)c1cc(Nc2cccc(N3CCN(C)CC3)c2)ncn1 [Example 188, N-[4-Methyl-3-(3-methyl-3-{6-[3-(4-methyl-piperazin-1-yl)-phenylamino]-pyrimidin-4-yl}-ureido)-phenyl]-3-trifluoromethyl-benzamide] |
| 87 to 100 | 56 to 98 | 79 to 100 |  |  |  | COc1ccc(NC(=O)c2cccc(C(F)(F)F)c2)cc1NC(=O)N(C)c1cc(Nc2ccc(N3CCN(C)CC3)cc2)ncn1 [Example 197, N-[4-Methoxy-3-(3-methyl-3-{6-[4-(4-methyl-Piperazin-1-yl)-phenylamino]-pyrimidin-4-yl}-ureido)-phenyl]-3-trifluoromethyl-benzamide] |
| 87 to 100 | 56 to 98 | 79 to 100 |  |  |  | COc1cc(NC(=O)c2ccc(CN3CCN(C)CC3)c(C(F)(F)F)c2)cc(NC(=O)N(C)c2cc(Nc3ccccc3)ncn2)c1 [Example 200, N-{3-Methoxy-5-[3-methyl-3-(6-phenylamino-pyrimidin-4-yl)-ureido]-phenyl}-4-(4-methyl-piperazin-1-ylmethyl)-3-trifluoromethyl-benzamide] |
| 87 to 100 | 56 to 98 | 79 to 100 |  |  |  | Cc1ccc(NC(=O)c2ccc(CN3CCN(C)CC3)c(C(F)(F)F)c2)cc1NC(=O)N(C)c1cc(Nc2ccccc2)ncn1 [Example 195, N-{4-Methyl-3-[3-methyl-3-(6-phenylamino-pyrimidin-4-yl)-ureido]-phenyl}-4-(4-methyl-piperazin-1-ylmethyl)-3-trifluoromethyl-benzamide] |
| 87 to 100 | 56 to 98 | 79 to 100 |  |  |  | Cc1ccc(NC(=O)c2cccc(C(F)(F)F)c2)cc1NC(=O)Nc1cc(Nc2ccc(OCCN3CCOCC3)cc2)ncn1 [Example 179, N-[4-Methyl-3-(3-{6-[4-(2-morpholin-4-yl-ethoxy)-phenylamino]-pyrimidin-4-yl}-ureido)-phenyl]-3-trifluoromethyl-benzamide] |
| 87 to 100 | 56 to 98 | 79 to 100 |  |  |  | COC(=O)Nc1cc(N(C)C(=O)Nc2cc(NC(=O)c3ccc(CN4CCN(C)CC4)c(C(F)(F)F)c3)ccc2C)ncn1 [Example 203, [6-(1-Methyl-3-{2-methyl-5-[4-(4-methyl-piperazin-1-ylmethyl)-3-trifluoromethyl-benzoylamino]-phenyl}-ureido)-pyrimidin-4-yl]-carbamic acid methyl ester] |
| 87 to 100 | 56 to 98 | 79 to 100 |  |  |  | Cc1ccc(NC(=O)c2cccc(C(F)(F)F)c2)cc1NC(=O)Nc1cc(Nc2cccc(OCCN3CCOCC3)c2)ncn1 [Example 180, N-[4-Methyl-3-(3-{6-[3-(2-morpholin-4-yl-ethoxy)-phenylamino]-pyrimidin-4-yl}-ureido)-phenyl]-3-trifluoromethyl-benzamide] |
| 87 to 100 | 56 to 98 | 79 to 100 |  |  |  | Cc1ccc(NC(=O)c2cccc(C(F)(F)F)c2)cc1NC(=O)Nc1cc(Nc2cccc(OCCN(C)C)c2)ncn1 [Example 178, N-[3-(3-{6-[3-(2-Dimethylamino-ethoxy)-phenylamino]-pyrimidin-4-yl}-ureido)-4-methyl-phenyl]-3-trifluoromethyl-benzamide] |
| 87 to 100 | 56 to 98 | 79 to 100 |  |  |  | CNc1cc(NC(=O)Nc2cc(NC(=O)c3cccc(C(F)(F)F)c3)ccc2C)ncn1 [Example 172, N-{4-Methyl-3-[3-(6-methylamino-pyrimidin-4-yl)-ureido]-phenyl}-3-trifluoromethyl-benzamide] |
| 87 to 100 | 56 to 98 | 79 to 100 |  |  |  | Cc1ccc(NC(=O)c2cccc(C(F)(F)F)c2)cc1NC(=O)Nc1cc(Nc2cccc(N3CCN(C)CC3)c2)ncn1 [Example 175, N-[4-Methyl-3-(3-{6-[3-(4-methyl-piperazin-1-yl)-phenylamino]-pyrimidin-4-yl}-ureido)-phenyl]-3-trifluoromethyl-benzamide] |
| 87 to 100 | 56 to 98 | 79 to 100 |  |  |  | COc1ccc(N)cc1NC(=O)N(C)c1cc(Nc2ccc(N3CCN(C)CC3)cc2)ncn1 [Example 196, 3-(5-Amino-2-methoxy-phenyl)-1-methyl-1-{6-[4-(4-methyl-piperazin-1-yl)-phenylamino]-pyrimidin-4-yl}-urea] |
| 87 to 100 | 56 to 98 | 79 to 100 |  |  |  | Cc1ccc(NC(=O)c2cccc(C(F)(F)F)c2)cc1NC(=O)N(C)c1cc(Nc2cccc(OCCN3CCN(C)CC3)c2)ncn1 [Example 185, N-{4-Methyl-3-[3-methyl-3-(6-{3-[2-(4-methyl-piperazin-1-yl)-ethoxy]-phenylamino}-pyrimidin-4-yl)-ureido]-phenyl}-3-trifluoromethyl-benzamide] |
| 87 to 100 | 56 to 98 | 79 to 100 |  |  |  | CCN(CC)CCOc1ccc(Nc2cc(NC(=O)Nc3cc(NC(=O)c4cccc(C(F)(F)F)c4)ccc3C)ncn2)cc1 [Example 176, N-[3-(3-{6-[4-(2-Diethylamino-ethoxy)-phenylamino]-pyrimidin-4-yl}-ureido)-4-methyl-phenyl]-3-trifluoromethyl-benzamide] |
| 87 to 100 | 56 to 98 | 79 to 100 |  |  |  | Cc1ccc(NC(=O)c2cccc(C(F)(F)F)c2)cc1NC(=O)N(CCN1CCN(C)CC1)c1cc(Nc2ccccc2)ncn1 [Example 189, N-{4-Methyl-3-[3-[2-(4-methyl-piperazin-1-yl)-ethyl]-3-(6-phenylamino-pyrimidin-4-yl)-ureido]-phenyl}-3-trifluoromethyl-benzamide] |
|  |  |  | 67 to 100 | 27 to 100 | 12 to 100 | COc1cc(OC)c(Cl)c(NC(=O)N(C)c2cc(Nc3ccc(OCCCN4CCN(C)CC4)cc3)ncn2)c1Cl [Example 146, 3-(2,6-Dichloro-3,5-dimethoxy-phenyl)-1-methyl-1-(6-{4-[3-(4-methyl-piperazin-1-yl)-propoxy]-phenylamino}-pyrimidin-4-yl)-urea] |
|  |  |  | 67 to 100 | 27 to 100 | 12 to 100 | COc1cc(NC(=O)N(C)c2cc(Nc3ccc(C(=O)N4CCN(C)CC4)cc3)ncn2)c(Cl)c(OC)c1 [Example 52, 3-(2-Chloro-3,5-dimethoxy-phenyl)-1-methyl-1-{6-[4-(4-methyl-piperazine-1-carbonyl)-phenylamino]-pyrimidin-4-yl}-urea] |
|  |  |  | 67 to 100 | 27 to 100 | 12 to 100 | O=C(Nc1cc(Nc2ccc(OCCCN3CCOCC3)cc2)ncn1)Nc1ccccc1Cl [Example 125, 1-(2-Chloro-Phenyl)-3-{6-[4-(3-morpholin-4-yl-propoxy)-phenylamino]-pyrimidin-4-yl}-urea bis-hydrochloride Salt] |
|  |  |  | 67 to 100 | 27 to 100 | 12 to 100 | CN(C(=O)Nc1cccc(Cl)c1)c1cc(Nc2ccc(F)cc2)ncn1 [Example 122, 3-(3-Chloro-Phenyl)-1-[6-(4-fluoro-phenylamino)-pyrimidin-4-yl]-1-methyl-urea] |
|  |  |  | 67 to 100 | 27 to 100 | 12 to 100 | COc1cc(NC(=O)Nc2cc(Nc3cccc(N4CCN(C)CC4)c3)ncn2)ccc1F [Example 33, 1-(4-Fluoro-3-methoxy-phenyl)-3-{6-[3-(4-methyl-piperazin-1-yl)-phenyl-amino]-pyrimidin-4-yl}-urea] |
|  |  |  | 67 to 100 | 27 to 100 | 12 to 100 | CNc1cc(NC(=O)Nc2cc(OC)cc(OC)c2Cl)ncn1 [Example 38, 1-(2-Chloro-3,5-dimethoxy-phenyl)-3-(6-methylamino-pyrimidin-4-yl)-urea] |
